Here are results for one compound from US20220087969A1, “METHOD FOR TREATING ASTHMA” (Olatec Therapeutics LLC, priority 2019, published 2022).

Data set [1] deals with OVA-induced allergic airway inflammation. As to the kind of experiment: Leukocyte subpopulations in bronchoalveolar lavage fluid, OVA allergic asthma model, i.p. dapansutrile. The class given is in vivo, C57BL/6j mice. The following applies: Day 29. The text has this: A well-established mouse model of experimental allergic asthma (Sel 2008, Wegmann 2005, Wegmann 2007, Lunding 2015a) was used to evaluate dapansutrile as a therapeutic option in allergic bronchial asthma and to determine if dapansutrile would have an impact on airway inflammation and the development of airway hyperresponsiveness (AHR) Inflammation in this model is characterized by the infiltration of eosinophils as well as of TH2 cells and involves the subsequent development of AHR and mucus hyperproduction so that this model resembles the major pathophysiologic hallmarks of human bronchial asthma.
C57BL/6j mice were sensitized to OVA (ovalbumin) by three intraperitoneal (i.p.) injections of 10 μg OVA adsorbed to 150 mg aluminum hydroxide on days 1, 14, and 21. This sensitization results in an adoptive immune response against OVA with OVA-specific TH2 cells and the production of OVA-specific antibodies of the subclasses IgE and IgG4.
To induce acute allergic airway inflammation, mice were exposed three times to an OVA aerosol (1% w/v in PBS) on days 26, 27, and 28.
Healthy control animals (healthy group) were sham sensitized to PBS and subsequently challenged with PBS aerosol. Non-drug treated animals (asthmatic group) and drug-treated animals (treated group) were sensitized by […] and subsequently challenged with OVA aerosol. The treatment group were treated with dapansutrile at 60 mg/kg at days 25, 26, 27, and 28 by intraperitoneal (i.p). injection, whereas the healthy group and the asthmatic group were administered with saline by intraperitoneal injection on days 25, 26, 27, and 28.
Eight animals per group were used. All animals were sacrificed on day 29. The following readouts were measured according to Lunding, 2015b. • General infiltration of inflammatory cells into the broncheoalveolar lumen • Determination of the specific infiltration of eosinophils, neutrophils and lymphocytes by histologic differentiation of the bronchoalveolar lavage (BAL) cells. • Goblet cell hyperplasia by CAST system (Computer Assisted Stereological Toolbox), including making microscopic pictures of the airways. • Airway resistance in response to methacholine to determine the airway hyperresponsiveness.
Specifically, inflammatory cell subpopulations (eosinophils, macrophages, neutrophils, lymphocytes) infiltrating the bronchoalveolar lumen were quantified using cyto-spinned and quick-diff-stained cells from bronchoalveolar lavage fluids (BALF). Further, inflammatory cell infiltration was recorded from hematoxylin and eosin (HE)-stained lung/airway cross-sections. AHR was assessed by recording airway resistance during a methacholine (MCh) provocation test in mice mechanically ventilated by a Buxco FinePoint RC unit. Mucus hyperproduction was quantified in PAS (periodic acid-Schiff)-stained airway cross-sections undergoing systematic, uniform random sampling and subsequent stereologic analysis of mucus amount in the airways and mucus producing goblet cells in the airway mucosa.
Allergic airway inflammation and mucus hyperproduction were assessed on Day 29, 24 hours after the final OVA aerosol challenge and dapansutrile dose.

For data set [2] the following is noted: humans, oral 1000 mg/day; Marchetti 2018b; cited from earlier work.

As to `CS(=O)(=O)CCC#N` [dapansutrile, 3-methanesulfonylpropionitrile], the “reduction in lymphocytes in BALF” value in data set [1] (60 mg/kg i.p. days 25-28, vs asthmatic mice) amounted to 32%. In data set [1] (60 mg/kg i.p. days 25-28, vs asthmatic mice, p<0.0001), the “reduction in eosinophils in BALF” value was “approximately 60%”. Also, the “reduction in neutrophils in BALF” value in data set [1] (60 mg/kg i.p. days 25-28, vs asthmatic mice, p<0.01) was 70%. For the same compound, the “macrophage numbers in BALF” value in data set [1] (60 mg/kg i.p., vs asthmatic mice) is “no significant reduction”. Moreover, the “eosinophils in BALF” value in data set [1] (treated mice, 60 mg/kg i.p. days 25-28, asthmatic 21.96×10^4) is reported as 7.30×10^4 cells/ml. Besides, the “lymphocytes in BALF” value in data set [1] (treated mice, 60 mg/kg i.p., asthmatic 0.80×10^4) is recorded as 0.55×10^4 cells/ml. Besides, the “neutrophils in BALF” value in data set [1] (treated mice, 60 mg/kg i.p., asthmatic 2.41×10^4) is listed as 0.70×10^4 cells/ml. The blood level in data set [2] was 40000 ng/mL.
